Source: patent US8658698B2, “Insecticidal compounds” (Syngenta Crop Protection, LLC, priority 2008, dated 2014)

Key:
Format in all cases: in vivo
[1] = tested on: Diabrotica balteata (Corn Root Worm); assay: Diabrotica balteata larvae test on artificial diet; conditions: same protocol, 200 ppm (18 ppm in well), 5 days
Procedure: (§1) This Example illustrates the pesticidal/insecticidal properties of compounds of formula (I). The tests were performed as follows:
(§2) Cotton leaf discs were placed on agar in a 24-well microtiter plate and sprayed with test solutions at an application rate of 200 ppm. After drying, the leaf discs were infested with 5 L1 larvae. The samples were checked for mortality, feeding behavior, and growth regulation 3 days after treatment (DAT). The following compounds gave at least 80% control of Spodoptera littoralis: A2, A6, A8, A9, A10, A11, A13, A15, A19, A20, A22, A25, A27, A29, A31, A33, A35, A41, A50, A55, A60, A65, A73, A88, A92, and A94. Heliothis virescens (Tobacco Budworm): Eggs (0-24 h old) were placed in 24-well microtiter plate on artificial diet and treated with test solutions at an application rate of 200 ppm (concentration in well 18 ppm) by pipetting. After an incubation period of 4 days, samples were checked for egg mortality, larval mortality and growth regulation. The following compounds gave at least 80% control of Heliothis virescens: A2, A3, A4, A5, A6, A7, A9, A10, A11, A13, A15, A19, A20, A22, A25, A26, A27, A28, A29, A31, A32, A33, A35, A38, A40, A41, A43, A46, A55, A59, A60, A65, A69, A70, A71, A73, A74, A75, A77, A79, A80, A82, A86, A88, A89, A90, A92, A94, A96, A98, and A100. Plutella xylostella (Diamond Back Moth): A 24-well microtiter plate (MTP) with artificial diet was treated with test solutions at an application rate of 200 ppm (concentration in well 18 ppm) by pipetting. After drying, the MTP's were infested with L2 larvae (7-12 per well). After an incubation period of 6 days, samples were checked for larval mortality and growth regulation. The following compounds gave at least 80% control of Plutella xylostella: A3, A4, A5, A6, A7, A8, A10, A15, A16, A18, A19, A20, A22, A25, A26, A27, A28, A29, A31, A32, A33, A35, A38, A40, A55, A69, A71, A73, A74, A75, A76, A77, A78, A80, A82, A86, A87, A88, A89, A92, A94, A96, A97, A98, and A99. Diabrotica balteata (Corn Root Worm): A 24-well microtiter plate (MTP) with artificial diet was treated with test solutions at an application rate of 200 ppm (concentration in well 18 ppm) by pipetting. After drying, the MTP's were infested with larvae (L2) (6-10 per well). After an incubation period of 5 days, samples were checked for larval mortality, and growth regulation. The following compounds gave at least 80% control of Diabrotica balteata: A5, A6, A7, A14, A15, A18, A24, A35, A53, A55, A70, A71, A75, A79, A84, A85, A88, A92, A93, A95, A96, A97, A98, A99, A100, A101, A102, A103, and A104. Myzus persicae (Green Peach Aphid): Each well of a 24-well microtiter plate is filled with 0.6 ml 30% sucrose solution, containing 12.5 ppm of the test compounds. The wells are covered with streched parafilm and infested with a mixed population of Myzus persicae. After an incubation period of 6 days, samples are checked for mortality (feeding activity). The following compounds gave at least 80% control of Myzus persicae: A4, A6, A10, A11, A15, A19, A20, A24, A27, A29, A33, A34, A36, A37, A39, A40, A41, A42, A43, A44, A45, A46, A47, A48, A49, A55, A60, and A82. Tetranychus urticae (Two-Spotted Spider Mite): Bean leaf discs on agar in 24-well microtiter plates were sprayed with test solutions at an application rate of 200 ppm. After drying, the leaf discs are infested with mite populations of mixed ages. 8 days later, discs are checked for egg mortality, larval mortality, and adult mortality. The following compounds gave at least 80% control of Tetranychus urticae: A6, A11, A15, A19, A20, A22, A26, A35, A58, and A64.

[2] = tested on: Heliothis virescens (Tobacco Budworm); assay: Heliothis virescens egg test on artificial diet; conditions: same protocol, 200 ppm (18 ppm in well), 4 days
Procedure: as §1, §2

[3] = tested on: Plutella xylostella (Diamond Back Moth); assay: Plutella xylostella larvae test on artificial diet; conditions: same protocol, 200 ppm (18 ppm in well), 6 days
Procedure: as §1, §2

[4] = tested on: Myzus persicae (Green Peach Aphid); assay: Myzus persicae sucrose solution feeding test; conditions: same protocol, 12.5 ppm, 6 days
Procedure: as §1, §2

[5] = tested on: Spodoptera littoralis (Egyptian Cotton Leafworm); assay: Spodoptera littoralis cotton leaf disc spray test; conditions: same protocol, 200 ppm, 3 DAT
Procedure: as §1
Spodoptera littoralis (Egyptian Cotton Leafworm)
as §2

[6] = tested on: Tetranychus urticae (Two-Spotted Spider Mite); assay: Tetranychus urticae bean leaf disc spray test; conditions: same protocol, 200 ppm, 8 days
Procedure: as §1, §2

Measured: effect on mortality, feeding behavior, or growth regulation

CCCCNC(=O)c1ccc(C(=O)Nc2c(C)cc(C(F)(C(F)(F)F)C(F)(F)F)cc2C)cc1C [A1, N-1-butyl-N-4-[2,6-dimethyl-4-(1,2,2,2-tetrafluoro-1-trifluoro-methyl-ethyl)-phenyl]-2-methyl-terephthalamide]
no or little effect: all assays above

CCOC(=O)C1CC=CCC1NC(=O)c1ccc(C(=O)Nc2c(C)cc(C(F)(C(F)(F)F)C(F)(F)C(F)(F)F)cc2CC)cc1C (stereo not drawn) [A12]
no or little effect: all assays above

CCc1cc(C(F)(C(F)(F)F)C(F)(F)C(F)(F)F)cc(C)c1NC(=O)c1ccc(C(=O)NC(C)COC)c(C)c1 (stereo not drawn) [A17]
no or little effect: all assays above

CCc1cc(C(F)(C(F)(F)F)C(F)(F)C(F)(F)F)cc(C)c1NC(=O)c1ccc(C(=O)NC2CCCCC2C)c(C)c1 (stereo not drawn) [A21]
no or little effect: all assays above

CCc1cc(C(F)(C(F)(F)F)C(F)(F)C(F)(F)F)cc(C)c1NC(=O)c1ccc(C(=O)NCCCN2CCCC2)c(C)c1 (stereo not drawn) [A23]
no or little effect: all assays above

CCc1cc(C(F)(C(F)(F)F)C(F)(F)C(F)(F)F)cc(C)c1NC(=O)c1ccc(C(=O)NCc2ccccc2OC(F)(F)F)c(C)c1 (stereo not drawn) [A30]
no or little effect: all assays above

CCc1cc(C(F)(C(F)(F)F)C(F)(F)C(F)(F)F)cc(C)c1NC(=O)c1ccc(C(=O)Nc2ccccc2-c2cc3ccccc3[nH]2)c(C)c1 (stereo not drawn) [A51]
no or little effect: all assays above

CCc1cc(C(F)(C(F)(F)F)C(F)(F)C(F)(F)F)cc(C)c1NC(=O)c1ccc(C(=O)Nc2ccccc2N2CCOCC2)c(C)c1 (stereo not drawn) [A52]
no or little effect: all assays above

CCc1cc(C(F)(C(F)(F)F)C(F)(F)C(F)(F)F)cc(C)c1NC(=O)c1ccc(C(=O)Nc2cc(C)nn2C)c(C)c1 (stereo not drawn) [A54]
no or little effect: all assays above

CCc1cc(C(F)(C(F)(F)F)C(F)(F)C(F)(F)F)cc(C)c1NC(=O)c1ccc(C(=O)Nc2n[nH]c(SC)n2)c(C)c1 (stereo not drawn) [A56]
no or little effect: all assays above

CCc1cc(C(F)(C(F)(F)F)C(F)(F)C(F)(F)F)cc(C)c1NC(=O)c1ccc(C(=O)Nc2ncccc2C)c(C)c1 (stereo not drawn) [A57]
no or little effect: all assays above

CCc1cc(C(F)(C(F)(F)F)C(F)(F)C(F)(F)F)cc(C)c1NC(=O)c1ccc(C(=O)Nc2cc(-c3ccccc3)[nH]n2)c(C)c1 (stereo not drawn) [A61]
no or little effect: all assays above
